Here are results for six molecules from patent publication US9403792B2, “Methods of using pyruvate kinase activators” (AGIOS PHARMACEUTICALS, INC, priority 2011, dated 2016).

The AC50 is the concentration at which the activity in the assay is half-maximal.

T2 sequence (P30613 whole entry R510Q): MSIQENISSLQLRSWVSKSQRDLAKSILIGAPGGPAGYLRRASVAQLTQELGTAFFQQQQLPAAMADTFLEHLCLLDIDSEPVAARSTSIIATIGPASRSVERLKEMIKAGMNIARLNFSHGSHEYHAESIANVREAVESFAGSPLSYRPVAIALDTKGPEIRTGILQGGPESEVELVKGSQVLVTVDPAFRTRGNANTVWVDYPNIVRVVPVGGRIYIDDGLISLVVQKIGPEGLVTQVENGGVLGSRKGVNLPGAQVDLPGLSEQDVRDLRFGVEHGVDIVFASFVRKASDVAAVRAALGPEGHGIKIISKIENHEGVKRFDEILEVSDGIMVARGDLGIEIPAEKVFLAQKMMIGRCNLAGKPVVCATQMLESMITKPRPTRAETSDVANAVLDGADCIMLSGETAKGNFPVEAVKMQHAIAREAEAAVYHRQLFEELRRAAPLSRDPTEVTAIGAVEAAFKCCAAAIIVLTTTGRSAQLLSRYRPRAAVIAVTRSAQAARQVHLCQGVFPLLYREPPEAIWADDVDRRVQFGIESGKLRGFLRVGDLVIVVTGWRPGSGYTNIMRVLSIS
Sequence of PKR wt (P30613 whole entry): as the sequence (P30613 whole entry R510Q) above, with Q510R counted along it
Sequence of PKR G364D (P30613 whole entry G364D): as the sequence (P30613 whole entry R510Q) above, with G364D, Q510R counted along it
Sequence of wild type PKR (P30613 whole entry): as the sequence (P30613 whole entry R510Q) above, with Q510R counted along it

The target of one test is PKR wt (Homo sapiens, UniProt P30613). Nature of the test: PKR WT Single Point Percent Activation Assay. In kind it is biochemical. The note with it: compound at 1 μM. How it is done:
PKR WT Single Point Percent Activation Assay
(§1) A compound described herein was diluted with DMSO and tested at 1 μM concentration. The enzyme was diluted in 1× Buffer: (100 mM KCl, 50 mM Tris 7.5, 5 mM MgCl2, 1 mM DTT, 0.03% BSA). 2 μL of compound solution was first added into wells, and then 180 μL of enzyme solution was added. Assays were assembled except for ADP, and plates were stored for 60 minutes at RT. 20 μL ADP was added to start the assay and assay output was evaluated using OD340 at SpectraMax. The assay was run at room temperature.
Final Concentration: PKR wt (100 ng/well), Tris pH 7.5 (50 mM), KCl (100 mM), MgCl2 (5 mM), ADP (0.48 mM), PEP (0.15 mM), NADH (180 μM), LDH (0.5 units, Sigma 59023), DTT (1 mM) and BSA (0.03%).
As to `COc1cc(F)c(S(=O)(=O)N2CCN(S(=O)(=O)c3cccc(N)c3)CC2)c(F)c1`, the activation at 1 µM fell in the range of 101 to 500%.
The same measure, in the same setting: then `COc1cc(F)c(S(=O)(=O)N2CCCN(S(=O)(=O)c3cccc(N)c3)CC2)c(F)c1`, with 101 to 500%; and `Cn1c2cc([S+](C)[O-])sc2c2cnn(Cc3ccccc3F)c(=O)c21` (centres unmarked), with 101 to 500%; and `O=S(=O)(c1ccc2c(c1)OCCO2)N1CCCN(S(=O)(=O)c2c(F)cccc2F)CC1`, with 101 to 500%.
`CSc1cc2c(s1)c1cnn(Cc3cccc(O)c3)c(=O)c1n2C` returned an activation at 1 µM of 101 to 500%.
Same read-out and setting: then `Nc1cccc(S(=O)(=O)N2CCN(S(=O)(=O)c3ccc4c(c3)OCCO4)CC2)c1`, with 1 to 100%.

The target in the next test is PKR R479H (Homo sapiens, UniProt P30613, R479H). As to the kind of experiment: PKR Mutant Assay (AC50), PKR R479H. In kind it is biochemical.
Sequence of PKR R479H (P30613 whole entry R479H): as the sequence (P30613 whole entry R510Q) above, with R479H, Q510R counted along it
Details: not given
How it is done: (§2) • PKR or PKR mutant enzyme solution was diluted in assay buffer. 2 μL of test compound was added into wells first, and then 180 μL reaction mix was added. • Reactions mixture with test compound was assembled except for ADP, and plates were stored for 60 minutes at room temperature. • 20 uL ADP was added to start reaction at room temperature and reaction progress was measured as changes in absorbance at 340 nm wavelength at room temperature. Test Compound Preparation: • Test compound stock was made at 100× concentration in 100% DMSO (10 mM) • 1 to 3 dilutions were made for 11 points (i.e. 50 μl of first concentration added to 100 μl 100% DMSO to yield 3.33 mM, 50 μl of this added to 100 μl DMSO to yield 1.11 mM, and so forth) • 1 to 100 dilution into assay (2 μl in 200 μl) yielded starting concentration of 100 μM, decreasing 3 fold for 11 points. Assay Buffer: 100 mM KCl, 50 mM Tris 7.5, 5 mM MgCl2, 1 mM DTT, 0.03% BSA Reaction Mixture: PKR mutant enzyme: 80-400 ng/well; ADP: 0.22-1.65 mM; PEP: 0.1-0.5 mM; NADH: 180 uM; LDH: 0.5 units (Sigma#59023); DTT: 1 mM; BSA: 0.03%.
Take `Cn1c2cc([S+](C)[O-])sc2c2cnn(Cc3ccccc3F)c(=O)c21` (centres unmarked): the concentration at half-maximal activity (AC50) is 101 to 500 nM.
On the same count and under the same terms, next, `CSc1cc2c(s1)c1cnn(Cc3cccc(O)c3)c(=O)c1n2C`: less than 100 nM.

The target of another test is T1, PKR T384W (Homo sapiens, UniProt P30613, T384W). As to the kind of experiment: PKR Mutant Assay (AC50), PKR T384W. In kind it is biochemical.
T1 sequence (P30613 whole entry T384W): as the sequence (P30613 whole entry R510Q) above, with T384W, Q510R counted along it
Details: not given
On the procedure: as §2
With `Cn1c2cc([S+](C)[O-])sc2c2cnn(Cc3ccccc3F)c(=O)c21` (centres unmarked), the AC50 was greater than 500 nM.
Turning to `CSc1cc2c(s1)c1cnn(Cc3cccc(O)c3)c(=O)c1n2C`, the AC50 was less than 100 nM.

The target of the next test is T1, PKR T384W. As to the kind of experiment: PKR T384W Single Point Percent Activation Assay. It counts as biochemical. The following applies: compound at 1 μM; read-out: % Act. T384W. How it is done:
PKR T384W Single Point Percent Activation Assay
A compound described herein was diluted with DMSO and tested at 1 μM concentration. The enzyme was diluted in 1× Buffer: (100 mM KCl, 50 mM Tris 7.5, 5 mM MgCl2, 1 mM DTT, 0.03% BSA). 2 μL of compound solution was first added into wells, and then 180 μL enzyme solution was added. Assays were assembled except for ADP, and plates were stored for 60 minutes at RT. 20 μL ADP was added to start the assay and assay output was evaluated using OD340 at SpectraMax. The assay was run at room temperature.
Final Concentration: PKR T384W soluble (300 ng/well), Tris pH 7.5 (50 mM), KCl (100 mM), MgCl2 (5 mM), ADP (0.08 mM), PEP (0.23 mM), NADH (180 μM), LDH (0.5 units, Sigma 59023), DTT (1 mM) and BSA (0.03%).
Consider `COc1cc(F)c(S(=O)(=O)N2CCN(S(=O)(=O)c3cccc(N)c3)CC2)c(F)c1`, for which the activation at 1 µM is 101 to 500%.
The same measure, in the same setting: next, `COc1cc(F)c(S(=O)(=O)N2CCCN(S(=O)(=O)c3cccc(N)c3)CC2)c(F)c1`: 101 to 500%; `Cn1c2cc([S+](C)[O-])sc2c2cnn(Cc3ccccc3F)c(=O)c21` (centres unmarked): 101 to 500%; `O=S(=O)(c1ccc2c(c1)OCCO2)N1CCCN(S(=O)(=O)c2c(F)cccc2F)CC1`: 101 to 500%.
The same measure, in the same setting: then `CSc1cc2c(s1)c1cnn(Cc3cccc(O)c3)c(=O)c1n2C`, with 101 to 500%; and `Nc1cccc(S(=O)(=O)N2CCN(S(=O)(=O)c3ccc4c(c3)OCCO4)CC2)c1`, with 1 to 100%.

The target of a further test is T2, PKR R510Q (Homo sapiens, UniProt P30613, R510Q). As to the kind of experiment: PKR R510Q Single Point Percent Activation Assay. It counts as biochemical. The note with it: compound at 1 μM; read-out: % Act. R510Q. How it is done:
PKR R510Q Single Point Percent Activation Assay
as §1
Final Concentration: PKR R510Q (40 ng/well), Tris pH 7.5 (50 mM), KCl (100 mM), MgCl2 (5 mM), ADP (0.2 mM), PEP (0.11 mM), NADH (180 μM), LDH (0.5 units, Sigma 59023), DTT (1 mM) and BSA (0.03%).
Turning to `COc1cc(F)c(S(=O)(=O)N2CCN(S(=O)(=O)c3cccc(N)c3)CC2)c(F)c1`, the activation at 1 µM was 101 to 500%.
On the same count and under the same terms, next, `COc1cc(F)c(S(=O)(=O)N2CCCN(S(=O)(=O)c3cccc(N)c3)CC2)c(F)c1`: 101 to 500%; `Cn1c2cc([S+](C)[O-])sc2c2cnn(Cc3ccccc3F)c(=O)c21` (centres unmarked): 101 to 500%; `O=S(=O)(c1ccc2c(c1)OCCO2)N1CCCN(S(=O)(=O)c2c(F)cccc2F)CC1`: 101 to 500%.
In the case of `CSc1cc2c(s1)c1cnn(Cc3cccc(O)c3)c(=O)c1n2C`, the activation at 1 µM is greater than 500%.
On the same count and under the same terms, next, `Nc1cccc(S(=O)(=O)N2CCN(S(=O)(=O)c3ccc4c(c3)OCCO4)CC2)c1`: 1 to 100%.

The target in the next test is wild type PKR (Homo sapiens, UniProt P30613). As to the kind of experiment: PKR Mutant Assay (AC50), wild type PKR. It counts as biochemical. The note with it: read-out: PKR WT AC50. How it is done:
as §2
For the molecule `Cn1c2cc([S+](C)[O-])sc2c2cnn(Cc3ccccc3F)c(=O)c21` (centres unmarked), the AC50 fell in the range of 101 to 500 nM.
On to `CSc1cc2c(s1)c1cnn(Cc3cccc(O)c3)c(=O)c1n2C`, for which the AC50 was less than 100 nM.

For the next test, the target named is T2, PKR R510Q. Nature of the test: PKR Mutant Assay (AC50), PKR R510Q.
Details: not given
In kind it is biochemical. On the procedure: as §2
The molecule `Cn1c2cc([S+](C)[O-])sc2c2cnn(Cc3ccccc3F)c(=O)c21` (centres unmarked) showed an AC50 of 101 to 500 nM.
As to `CSc1cc2c(s1)c1cnn(Cc3cccc(O)c3)c(=O)c1n2C`, the AC50 is less than 100 nM.

A further test addresses PKR G364D (Homo sapiens, UniProt P30613, G364D). As to the kind of experiment: PKR Mutant Assay (AC50), PKR G364D.
Details: not given
In kind it is biochemical. How it is done:
as §2
`Cn1c2cc([S+](C)[O-])sc2c2cnn(Cc3ccccc3F)c(=O)c21` (centres unmarked): the AC50 is 101 to 500 nM.
On the same count and under the same terms, then `CSc1cc2c(s1)c1cnn(Cc3cccc(O)c3)c(=O)c1n2C`, with less than 100 nM.

The target of a further test is T3, PKR R532W (Homo sapiens, UniProt P30613, R532W). Nature of the test: PKR Mutant Assay (AC50), PKR R532W.
T3 sequence (P30613 whole entry R532W): as the sequence (P30613 whole entry R510Q) above, with Q510R, R532W counted along it
Details: not given
It counts as biochemical. On the procedure:
as §2
`Cn1c2cc([S+](C)[O-])sc2c2cnn(Cc3ccccc3F)c(=O)c21` (centres unmarked) yielded an AC50 greater than 500 nM.
The same measure, in the same setting: next, `CSc1cc2c(s1)c1cnn(Cc3cccc(O)c3)c(=O)c1n2C`: less than 100 nM.

The target in a further test is PKR G332S (Homo sapiens, UniProt P30613, G332S). Nature of the test: PKR Mutant Assay (AC50), PKR G332S. It counts as biochemical.
Sequence of PKR G332S (P30613 whole entry G332S): as the sequence (P30613 whole entry R510Q) above, with G332S, Q510R counted along it
Details: not given
How it is done: as §2
With `Cn1c2cc([S+](C)[O-])sc2c2cnn(Cc3ccccc3F)c(=O)c21` (centres unmarked), the AC50 was greater than 500 nM.
Still for that read-out and setting: next, `CSc1cc2c(s1)c1cnn(Cc3cccc(O)c3)c(=O)c1n2C`: less than 100 nM.

A further test deals with T3, PKR R532W. Nature of the test: PKR R532W Single Point Percent Activation Assay. The note with it: compound at 1 μM; read-out: % Act. R532W. It counts as biochemical. How it is done: PKR R532W Single Point Percent Activation Assay
as §1
Final Concentration: PKR R532W (100 ng/well), Tris pH 7.5 (50 mM), KCl (100 mM), MgCl2 (5 mM), ADP (0.36 mM), PEP (0.1 mM), NADH (180 μM), LDH (0.5 units, Sigma 59023), DTT (1 mM) and BSA (0.03%).
Turning to `COc1cc(F)c(S(=O)(=O)N2CCN(S(=O)(=O)c3cccc(N)c3)CC2)c(F)c1`, the activation at 1 µM was 101 to 500%.
On the same count and under the same terms, then `COc1cc(F)c(S(=O)(=O)N2CCCN(S(=O)(=O)c3cccc(N)c3)CC2)c(F)c1`, with 101 to 500%; and `Cn1c2cc([S+](C)[O-])sc2c2cnn(Cc3ccccc3F)c(=O)c21` (centres unmarked), with 101 to 500%; and `O=S(=O)(c1ccc2c(c1)OCCO2)N1CCCN(S(=O)(=O)c2c(F)cccc2F)CC1`, with 101 to 500%.
Still for that read-out and setting: next, `CSc1cc2c(s1)c1cnn(Cc3cccc(O)c3)c(=O)c1n2C`: 101 to 500%.
With `Nc1cccc(S(=O)(=O)N2CCN(S(=O)(=O)c3ccc4c(c3)OCCO4)CC2)c1`, the activation at 1 µM fell in the range of 101 to 500%.
